From ChEMBL document CHEMBL5260810, “Inhibition of bromodomain-containing protein 9 for the prevention of epigenetically-defined drug resistance” (Bioorg Med Chem Lett, 2017)
≈ marks a conversion by molar mass, not a printed value. Calls of active or inactive are those of the source. The calls are words filed in the database; no cut-off is given here.

Tests used:
NB-4 = experiment: Cytotoxicity against human NB-4 cells measured after 8 days; format: functional, cell-based; details: NB-4, 192 h
Capan-2 = experiment: Antiproliferative activity against human Capan-2 cells assessed as reduction in colony formation up to 20 uM supplemented with fresh medium containing compound every 3 days for 9 days by MTT staining based clonogenic assay; format: functional, cell-based; details: time 9.0 day
[1] = Cytotoxicity against human Sc-1 cells measured after 3 days; format: functional, cell-based; details: SC-1, 72 h
[2] = Cytotoxicity against human EFM-192C cells measured after 3 days; format: functional, cell-based; details: 72 h
K562 = experiment: Cytotoxicity against human K562 cells measured after 3 days; format: functional, cell-based; details: K562, 72 h
[3] = Cytotoxicity against human OVISE cells measured after 3 days; format: functional, cell-based; details: 72 h
[4] = Cytotoxicity against human KMS-21BM cells measured after 3 days; format: functional, cell-based; details: 72 h
[5] = Cytotoxicity against human HS-Sultan cells measured after 3 days; format: functional, cell-based; details: 72 h
[6] = Cytotoxicity against human COV504 cells measured after 3 days; format: functional, cell-based; details: COV504, 72 h
[7] = Cytotoxicity against human EFM-192A cells measured after 8 days; format: functional, cell-based; details: 192 h
[8] = Cytotoxicity against human HCC1493 cells measured after 3 days; format: functional, cell-based; details: HCC1493, 72 h
SUD4 = experiment: Cytotoxicity against human SU-DHL-4 cells measured after 3 days; format: functional, cell-based; details: SU-DHL-4, 72 h
[9] = Cytotoxicity against human COV362.4 cells measured after 3 days; format: functional, cell-based; details: COV362.4, 72 h
SK-OV-3 = experiment: Cytotoxicity against human SK-OV-3 cells measured after 3 days; format: functional, cell-based; details: SK-OV-3, 72 h
Granta-519 = experiment: Cytotoxicity against human Granta-519 cells measured after 3 days; format: functional, cell-based; details: Granta-519, 72 h
SUP-B15 = experiment: Cytotoxicity against human SUP-B15 cells measured after 3 days; format: functional, cell-based; details: SUP-B15, 72 h
U-937 = experiment: Cytotoxicity against human U-937 cells measured after 3 days; format: functional, cell-based; details: U-937, 72 h
LN-18 = experiment: Cytotoxicity against human LN-18 cells measured after 3 days; format: functional, cell-based; details: LN-18, 72 h
[10] = Cytotoxicity against human Hs 38.T cells measured after 3 days; format: functional, cell-based; details: 72 h
CAL-148 = experiment: Cytotoxicity against human CAL-148 cells measured after 3 days; format: functional, cell-based; details: CAL-148, 72 h
OCI-AML-5 = experiment: Cytotoxicity against human OCI-AML5 cells measured after 3 days; format: functional, cell-based; details: OCI-AML-5, 72 h
A2780 = experiment: Cytotoxicity against human A2780 cells measured after 3 days; format: functional, cell-based; details: A2780, 72 h
[11] = Cytotoxicity against human PMF-ko14 cells measured after 3 days; format: functional, cell-based; details: PMF-ko14, 72 h
CAMA-1 = experiment: Cytotoxicity against human CAMA-1 cells measured after 3 days; format: functional, cell-based; details: CAMA-1, 72 h
KMS-11 = experiment: Cytotoxicity against human KMS-11 cells measured after 3 days; format: functional, cell-based; details: KMS-11, 72 h
G-402 = experiment: Cytotoxicity against human G-402 cells measured after 3 days; format: functional, cell-based; details: G-402, 72 h
Huh-7 = experiment: Cytotoxicity against human Huh-7 cells measured after 3 days; format: functional, cell-based; details: Huh-7, 72 h
U-698-M = experiment: Cytotoxicity against human U-698-M cells measured after 3 days; format: functional, cell-based; details: 72 h
[12] = Cytotoxicity against human NCE-G 59 cells measured after 3 days; format: functional, cell-based; details: NCE-G 59, 72 h
769-P = experiment: Cytotoxicity against human 769-P cells measured after 3 days; format: functional, cell-based; details: 72 h
[13] = Cytotoxicity against human Karpas-620 cells measured after 3 days; format: functional, cell-based; details: Karpas-620, 72 h
EBC-1 = experiment: Cytotoxicity against human EBC-1 cells after 8 days; format: functional, cell-based; details: EBC-1, 192 h
[14] = Cytotoxicity against human 537-mel cells after 8 days; format: functional, cell-based; details: 192 h
[15] = Cytotoxicity against human LS174T-HM7 cells measured after 3 days; format: functional, cell-based; details: LS174T-HM7, 72 h
[16] = Kinetic solubility of the compound; format: physicochemical; details: read-out: Kinetic_solubility
SW626 = experiment: Cytotoxicity against human SW626 cells measured after 3 days; format: functional, cell-based; details: SW626, 72 h
[17] = Cytotoxicity against human UKE-1 cells measured after 3 days; format: functional, cell-based; details: UKE1, 72 h
[18] = Cytotoxicity against human VP267 cells measured after 3 days; format: functional, cell-based; details: VP267, 72 h
HMEC = experiment: Cytotoxicity against HMEC cells measured after 8 days; format: functional, cell-based; details: Homo sapiens, 192 h
SU-DHL-8 = experiment: Cytotoxicity against human SU-DHL-8 cells measured after 3 days; format: functional, cell-based; details: SU-DHL-8, 72 h
[19] = Cytotoxicity against human COV413A cells measured after 3 days; format: functional, cell-based; details: 72 h
NCI-H2170 = experiment: Cytotoxicity against human NCI-H2170 cells measured after 3 days; format: functional, cell-based; details: NCI-H2170, 72 h
RPMI-8226 = experiment: Cytotoxicity against human RPMI-8226 cells measured after 3 days; format: functional, cell-based; details: RPMI-8226, 72 h
[20] = Cytotoxicity against human KPL-4 cells measured after 3 days; format: functional, cell-based; details: KPL4, 72 h
[21] = Cytotoxicity against human WSU-FSCCL cells measured after 3 days; format: functional, cell-based; details: 72 h
[22] = Cytotoxicity against human EB1 cells measured after 3 days; format: functional, cell-based; details: EB1, 72 h
U-266 = experiment: Cytotoxicity against human U266B1 cells measured after 3 days; format: functional, cell-based; details: U-266, 72 h
TOV112D = experiment: Cytotoxicity against human TOV112D cells measured after 3 days; format: functional, cell-based; details: 72 h
HuCCT-1 = experiment: Cytotoxicity against human HuCCT-1 cells measured after 3 days; format: functional, cell-based; details: HuCCT-1, 72 h
LN-229 = experiment: Cytotoxicity against human LN-229 cells measured after 3 days; format: functional, cell-based; details: LN-229, 72 h
COR-L47 = experiment: Cytotoxicity against human COR-L47 cells measured after 3 days; format: functional, cell-based; details: COR-L47, 72 h
[23] = Cytotoxicity against human KMS-28PE cells measured after 3 days; format: functional, cell-based; details: 72 h
[24] = Cytotoxicity against human OCI-M1 cells measured after 3 days; format: functional, cell-based; details: OCI-M1, 72 h
BT-474 = experiment: Cytotoxicity against human BT-474 cells measured after 3 days; format: functional, cell-based; details: BT-474, 72 h
[25] = Cytotoxicity against human HLF cells measured after 3 days; format: functional, cell-based; details: 72 h
[26] = Cytotoxicity against human OVTOKO cells measured after 3 days; format: functional, cell-based; details: 72 h
PC-9 = experiment: Antiproliferative activity against human PC-9 cells assessed as reduction in colony formation at 1 uM supplemented with fresh medium containing compound every 3 days by MTT staining based assay; format: functional, cell-based; details: time 9.0 day
[27] = Cytotoxicity against human COV362 cells measured after 3 days; format: functional, cell-based; details: COV362, 72 h
SK-BR-3 = experiment: Cytotoxicity against human SK-BR-3 cells measured after 3 days; format: functional, cell-based; details: SK-BR-3, 72 h
[28] = Cytotoxicity against human RKOE6 cells measured after 3 days; format: functional, cell-based; details: RKOE6, 72 h
[29] = Cytotoxicity against human NCI-H1568 cells after 8 days; format: functional, cell-based; details: NCI-H1568, 192 h
Daudi = experiment: Cytotoxicity against human Daudi cells measured after 3 days; format: functional, cell-based; details: 72 h
PC-3 = experiment: Cytotoxicity against human PC-3 cells measured after 3 days; format: functional, cell-based; details: PC-3, 72 h

In the case of C/C=C/Cn1cc(-c2ccc(C(C)(C)O)cc2OC)c2cc[nH]c2c1=O, the IC50 (NB-4) is reported as 20 µM and the Activity (Capan-2) is reported as “inactive”.
Compound C/C=C/Cn1cc(-c2cc(OC)c(C(=O)N3CCOCC3)cc2OC)c2cc(C)[nH]c2c1=O has an IC50 [1] of 5 µM, an IC50 [2] of 5 µM and an IC50 (K562) of 5 µM. For the same compound, the IC50 [3] was 5 µM, the IC50 [4] was 5 µM and the IC50 [5] was 5 µM. The IC50 [6] was 5 µM, the IC50 [7] was 2 µM and the IC50 [8] was 5 µM. The IC50 (SUD4) was 5 µM, the IC50 [9] was 5 µM and the IC50 (SK-OV-3) was 5 µM. It also gave an IC50 (Granta-519) of 5 µM, an IC50 (SUP-B15) of 5 µM and an IC50 (U-937) of 5 µM. For the same compound, the IC50 (LN-18) was 5 µM, the IC50 [10] was 5 µM and the IC50 (CAL-148) was 5 µM. The IC50 (OCI-AML-5) was 5 µM, the IC50 (A2780) was 5 µM and the IC50 [11] was 5 µM. For the same compound, the IC50 (CAMA-1) was 5 µM, the IC50 (KMS-11) was 5 µM and the IC50 (G-402) was 5 µM. It also gave an IC50 (Huh-7) of 5 µM, an IC50 (U-698-M) of 5 µM and an IC50 [12] of 5 µM. It also gave an IC50 (769-P) of 5 µM, an IC50 [13] of 5 µM and an IC50 (EBC-1) of 2 µM. For the same compound, the IC50 [14] was 2 µM, the IC50 [15] was 5 µM and the solubility kinetic [16] was 135 µM (≈ 61 µg/mL). The IC50 (SW626) was 5 µM, the IC50 [17] was 5 µM and the IC50 [18] was 5 µM. For the same compound, the IC50 (HMEC) was 2 µM, the IC50 (SU-DHL-8) was 5 µM and the IC50 [19] was 5 µM. The IC50 (NCI-H2170) was 5 µM, the IC50 (RPMI-8226) was 5 µM and the IC50 [20] was 5 µM. For the same compound, the IC50 [21] was 5 µM, the IC50 [22] was 5 µM and the IC50 (U-266) was 5 µM. The IC50 (TOV112D) was 5 µM, the IC50 (HuCCT-1) was 5 µM and the IC50 (LN-229) was 5 µM. It also gave an IC50 (COR-L47) of 5 µM, an IC50 [23] of 5 µM and an IC50 [24] of 5 µM. It also gave an IC50 (BT-474) of 5 µM, an IC50 [25] of 5 µM and an IC50 [26] of 5 µM. For the same compound, the Activity (PC-9) was “inactive”, the IC50 [27] was 5 µM and the IC50 (SK-BR-3) was 5 µM. For the same compound, the IC50 [28] was 5 µM, the IC50 [29] was 2 µM and the IC50 (Daudi) was 5 µM. The IC50 (PC-3) was 5 µM.
